Format in all cases: cell-based
Assay [1] addresses T1, human GLP-1R (Homo sapiens, UniProt P43220).
T1 construct: expressed in transfected cells; host or cells: CHO-K1, plasmids hGLP-1/pIRESneo3 and Cre-luc(Zeo)
In words: Agonist activity against human GLP-1R, CRE-luciferase reporter assay in hGLP-1R/CRE-luc/CHO-K1 cells.

The target of assay [2] is T2, human glucagon R (Homo sapiens, UniProt P47871).
T2 construct: expressed in transfected cells; host or cells: CHO-K1 (CRE-LUC/CHO-K1), plasmid hGlucagonR/pMSRα-neo
T2 sequence (P47871 26-477): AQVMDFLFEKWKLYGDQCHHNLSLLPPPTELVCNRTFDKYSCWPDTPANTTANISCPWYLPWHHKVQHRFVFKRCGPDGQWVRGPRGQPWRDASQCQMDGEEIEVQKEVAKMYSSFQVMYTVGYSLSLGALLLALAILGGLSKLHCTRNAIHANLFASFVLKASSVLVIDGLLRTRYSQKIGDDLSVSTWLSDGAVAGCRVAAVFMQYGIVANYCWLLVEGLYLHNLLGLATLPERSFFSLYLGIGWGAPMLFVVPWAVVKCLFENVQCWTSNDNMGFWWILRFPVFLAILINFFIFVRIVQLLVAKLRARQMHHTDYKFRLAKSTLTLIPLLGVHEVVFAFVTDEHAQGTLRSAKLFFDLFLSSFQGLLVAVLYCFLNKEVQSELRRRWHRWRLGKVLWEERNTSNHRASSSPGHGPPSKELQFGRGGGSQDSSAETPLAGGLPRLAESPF
In words: Agonist activity against human glucagon R, CRE-luciferase reporter assay in hGlucagonR/CRE-LUC/CHO-K1 cells.

Assay [3] has as its target T3, human GIPR (Homo sapiens, UniProt P48546).
T3 construct: expressed in transfected cells; host or cells: CHO-K1 (CRE-LUC/CHO-K1), plasmid hGIPR/pMSRα-neo
T3 sequence (P48546 22-466): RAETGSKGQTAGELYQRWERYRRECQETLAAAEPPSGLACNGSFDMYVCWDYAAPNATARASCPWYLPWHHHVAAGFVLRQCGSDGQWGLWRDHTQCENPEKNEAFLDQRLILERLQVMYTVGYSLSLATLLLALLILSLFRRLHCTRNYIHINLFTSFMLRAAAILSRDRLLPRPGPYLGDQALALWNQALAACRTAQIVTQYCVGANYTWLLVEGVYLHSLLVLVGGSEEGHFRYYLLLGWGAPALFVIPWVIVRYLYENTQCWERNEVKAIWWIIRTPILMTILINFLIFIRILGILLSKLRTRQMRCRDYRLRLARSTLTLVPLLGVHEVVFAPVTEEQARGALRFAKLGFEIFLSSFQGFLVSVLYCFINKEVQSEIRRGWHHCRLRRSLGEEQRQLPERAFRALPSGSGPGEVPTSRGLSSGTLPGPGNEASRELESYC
In words: Agonist activity against human GIPR, CRE-luciferase reporter assay (rise in intracellular cAMP) in hGIPR/CRE-LUC/CHO-K1 cells.

Square brackets hold non-standard residues; d marks the D form. Peptide text beside a SMILES is read from it. αMeF = C[C@](N)(Cc1ccccc1)C(=O)O; Aib = CC(C)(N)C(=O)O Some results are limits rather than exact numbers.

T1 sequence (P43220 24-463): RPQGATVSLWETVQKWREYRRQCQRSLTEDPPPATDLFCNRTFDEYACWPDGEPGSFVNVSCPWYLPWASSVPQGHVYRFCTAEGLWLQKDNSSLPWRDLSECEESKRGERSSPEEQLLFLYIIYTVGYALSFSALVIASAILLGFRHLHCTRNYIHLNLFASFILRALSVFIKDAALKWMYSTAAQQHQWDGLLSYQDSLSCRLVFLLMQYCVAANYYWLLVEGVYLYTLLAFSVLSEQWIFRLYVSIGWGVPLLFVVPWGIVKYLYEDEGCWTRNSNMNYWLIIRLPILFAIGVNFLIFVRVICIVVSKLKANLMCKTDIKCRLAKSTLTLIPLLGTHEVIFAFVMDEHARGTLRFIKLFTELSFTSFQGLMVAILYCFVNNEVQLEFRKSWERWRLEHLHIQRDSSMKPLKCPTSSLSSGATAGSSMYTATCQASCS

Regarding `CC[C@H](C)[C@H](NC(=O)[C@H](C)NC(=O)[C@H](Cc1ccc(O)cc1)NC(=O)[C@H](CC(=O)O)NC(=O)[C@H](CO)NC(=O)[C@@H](NC(=O)[C@](C)(Cc1ccccc1)NC(=O)[C@@H](NC(=O)CNC(=O)[C@H](CCC(=O)O)NC(=O)C(C)(C)NC(=O)[C@@H](N)Cc1ccc(O)cc1)[C@@H](C)O)[C@@H](C)O)C(=O)NC(C)(C)C(=O)N[C@@H](CC(C)C)C(=O)N[C@@H](CC(=O)O)C(=O)N[C@@H](CCCCN)C(=O)N[C@@H](CCC(N)=O)C(=O)N[C@@H](C)C(=O)N[C@@H](CCC(N)=O)C(=O)N[C@@H](C)C(=O)N[C@@H](CCC(=O)O)C(=O)N[C@@H](Cc1ccccc1)C(=O)N[C@H](C(=O)N[C@@H](CCCCN)C(=O)N[C@@H](Cc1c[nH]c2ccccc12)C(=O)N[C@@H](CC(C)C)C(=O)N[C@@H](CC(C)C)C(=O)N[C@@H](CCCCN)C(=O)NCC(=O)NCC(=O)N1CCC[C@H]1C(=O)N[C@@H](CO)C(=O)N[C@@H](CO)C(=O)NCC(=O)N[C@@H](C)C(=O)N1CCC[C@H]1C(=O)N1CCC[C@H]1C(=O)N1CCC[C@H]1C(=O)N[C@@H](CO)C(=O)N[C@@H](CCCCN)C(N)=O)C(C)C` [Example 1] (H-Y[Aib]EGT[αMeF]TSDYAI[Aib]LDKQAQAEFVKWLLKGGPSSGAPPPSK-NH2), the figures for the EC50 in assay [1], in assay [2] and in assay [3] were 0.012 nM, more than 1000 nM and 0.0081 nM, respectively.
For `CC[C@H](C)[C@H](NC(=O)C(C)(C)NC(=O)[C@H](Cc1ccc(O)cc1)NC(=O)[C@H](CC(=O)O)NC(=O)[C@H](CO)NC(=O)[C@@H](NC(=O)[C@](C)(Cc1ccccc1)NC(=O)[C@@H](NC(=O)CNC(=O)[C@H](CCC(=O)O)NC(=O)C(C)(C)NC(=O)[C@@H](N)Cc1ccc(O)cc1)[C@@H](C)O)[C@@H](C)O)C(=O)NC(C)(C)C(=O)N[C@@H](CC(C)C)C(=O)N[C@@H](CC(=O)O)C(=O)N[C@@H](CCCCN)C(=O)N[C@@H](CCC(N)=O)C(=O)N[C@@H](C)C(=O)N[C@@H](CCC(N)=O)C(=O)N[C@@H](CO)C(=O)N[C@@H](CCC(=O)O)C(=O)N[C@@H](Cc1ccccc1)C(=O)N[C@H](C(=O)N[C@@H](CCCCN)C(=O)N[C@@H](Cc1c[nH]c2ccccc12)C(=O)N[C@@H](CC(C)C)C(=O)N[C@@H](CC(C)C)C(=O)N[C@@H](CCCCN)C(=O)NCC(=O)NCC(=O)N1CCC[C@H]1C(=O)N[C@@H](CO)C(=O)N[C@@H](CO)C(=O)NCC(=O)N[C@@H](C)C(=O)N1CCC[C@H]1C(=O)N1CCC[C@H]1C(=O)N1CCC[C@H]1C(=O)N[C@@H](CO)C(=O)N[C@@H](CCCCN)C(N)=O)C(C)C` [Example 4] (H-Y[Aib]EGT[αMeF]TSDY[Aib]I[Aib]LDKQAQSEFVKWLLKGGPSSGAPPPSK-NH2), in that order: 0.0099 nM, more than 1000 nM and 0.0049 nM.
For `CC(C)C[C@H](NC(=O)[C@H](CC(C)C)NC(=O)[C@H](Cc1c[nH]c2ccccc12)NC(=O)[C@H](CCCCN)NC(=O)[C@@H](NC(=O)[C@H](Cc1ccccc1)NC(=O)[C@H](CCC(=O)O)NC(=O)[C@H](C)NC(=O)[C@H](CCC(N)=O)NC(=O)[C@H](C)NC(=O)[C@H](CCC(N)=O)NC(=O)[C@H](CCCCN)NC(=O)[C@H](CC(=O)O)NC(=O)[C@H](CC(C)C)NC(=O)C(C)(C)NC(=O)[C@H](Cc1ccccc1)NC(=O)C(C)(C)NC(=O)[C@H](Cc1ccc(O)cc1)NC(=O)[C@H](CC(=O)O)NC(=O)[C@H](CO)NC(=O)[C@@H](NC(=O)[C@](C)(Cc1ccccc1)NC(=O)[C@@H](NC(=O)CNC(=O)[C@H](CCC(=O)O)NC(=O)C(C)(C)NC(=O)[C@@H](N)Cc1ccc(O)cc1)[C@@H](C)O)[C@@H](C)O)C(C)C)C(=O)N[C@@H](CCCCN)C(=O)NCC(=O)NCC(=O)N1CCC[C@H]1C(=O)N[C@@H](CO)C(=O)N[C@@H](CO)C(=O)NCC(=O)N[C@@H](C)C(=O)N1CCC[C@H]1C(=O)N1CCC[C@H]1C(=O)N1CCC[C@H]1C(=O)N[C@@H](CO)C(=O)N[C@@H](CCCCN)C(N)=O` [Example 11] (H-Y[Aib]EGT[αMeF]TSDY[Aib]F[Aib]LDKQAQAEFVKWLLKGGPSSGAPPPSK-NH2), in that order: 0.022 nM, more than 1000 nM and 0.015 nM.
